B1: IspSm2: mutant IspSm1 containing L35R (SEQ ID NO: 8), screened from random mutant library (protein)
chain: MACSVSTENVSFTETETETRRSANYEPNSWDYDYRLSSDTDESIEVYKDKAKKLEAEVRREINNEKAEFLTLLELIDNVQRLGLGYRFESDIRRALDRFVSSGGFDAVTKTSLHATALSFRLLRQHGFEVSQEAFSGFKDQNGNFLENLKEDIKAILSLYEASFLALEGENILDEAKVFAISHLKELSEEKIGKDLAEQVNHALELPLHRRTQRLEAVLSIEAYRKKEDADQVLLELAILDYNMIQSVYQRDLRETSRWWRRVGLATKLHFARDRLIESFYWAVGVAFEPQYSDCRNSVAKMFSFVTIIDDIYDVYGTLDELELFTNAVERWDVNAIDDLPDYMKLCFLALYNTINEIAYDNLKEKGENILPYLTKAWADLCNAFLQEAKWLYNKSTPTFDDYFGNAWKSSSGPLQLVFAYFAVVQNIKKEEIENLQKYHDIISRPSHIFRLCNDLASASAEIARGETANSVSCYMRTKGISEELATESVMNLIDETWKKMNKEKLGGSLFAKPFVETAINLARQSHCTYHNGDAHTSPDELTRKRVLSVITEPILPFER
modifications: IspSm2

Legend:
[1] = system: IspGESS artificial genetic circuit (TbuT regulator); assay: Quantitative fluorescence response of pIspGESS-containing recombinant E. coli to added compounds (FACS); assay type: cell-based, E. coli DH5α; conditions: for response of IspGESS fluorescence to the compound: 0-2000 μM, FACS; for concentration from which fluorescence started to be sensed: pIspGESS in E. coli DH5α, M9 medium, 30° C. 18 hours, FACS FL1-H
Description: In order to examine the isoprene, toluene, benzene and phenol compounds sensing function of pIspGESS-containing recombinant E. coli, pIspGESS of Example 1 was introduced into a single colony of E. coli DH5α (NEB, USA) by heat shock, and then the E. coli colony was inoculated into an LB liquid medium (1% (w/v) trypton, 0.5% (w/v) yeast extract, and 1% (w/v) sodium chloride) supplemented with 50 μg/Ml of ampicillin and was cultured with shaking at 37° C. for 14 hours. The culture was inoculated into M9 minimal medium (containing 50 μg/Ml ampicillin, 4% glucose and 1% thiamine) at a concentration of 1% and then cultured with shaking at 37° C. for 6 hours. Various concentrations (0-2000 μM) of isoprene was added to each of the test tubes containing the culture broth, after then the culture was cultured with shaking at 30° C. for 18 hours, thereby inducing the expression of fluorescence in the culture. The intensity of intracellular fluorescence induced by each concentration of toluene was analyzed by a FACS Calibur system (Becton Dickinson, USA). As a detector, a FSC, SSC, FL1-H (excitation=488 nm, emission=530/30 nm) detector was set, and data obtained by observing 10,000 samples were analyzed using CellQuest Pro (Becton Dickinson, USA).

[2] = system: IspGESS artificial genetic circuit; assay: Detection of isoprene synthase activity with IspGESS, pCDF vector (FACS); assay type: cell-based; conditions: E. coli BL21(DE3), FACS 10,000 cells
Description: First, the IspSm1 gene was inserted into the NcoI-AvrII restriction enzyme site of a pCDF-duet vector (Novagen, USA) to prepare pCDF-IspSm1, which was then introduced into an E. coli BL21 (DE3) strain (NEB, USA) containing pIspGESS of […] of ampicillin and 10 μg/Ml of streptomycin were added to LB liquid medium containing 0.1 mM of IPTG (isopropyl-thio-β-Dgalactopyranoside), and E. coli cells were cultured with shaking in the LB liquid medium at 37° C. for 16 hours. Then, the cultured cells were transferred into M9 liquid medium containing 0.1 mM IPTG and were cultured at 28° C. and 200 rpm for 20 hours. […] The intensity of fluorescence in the cultured cells was analyzed using a FACS Calibur system (Becton Dickinson, USA). As a detector, a FSC, SSC, FL1-H (excitation=488 nm, emission=530/30 nm) detector was set, and data obtained by observing 10,000 samples were analyzed.
As a result, 5×10^5 of mutant library was constructed. […] With the criterion for screening, cells showing fluorescence intensity which is at least 50% higher than that of IspSm1 were sorted using a FACScalibur system (Becton Dickinson, USA). Then, 6 clones having higher fluorescence intensity than IspSm1 were isolated.
The activities of the isolated clones were analyzed by a FACS. As detectors, FSC, SSC, FL1-H (excitation=488 nm, emission=530/30 nm) detectors were set, and 10,000 cells were analyzed.

[3] = system: IspGESS artificial genetic circuit; assay: Detection of isoprene synthase activity with IspGESS, pPROLar vector (FACS, t-test); assay type: cell-based; conditions: E. coli DH5α
Description: First, IspSm1 and IspSm2 genes were amplified using PCR with primers (SEQ ID NOS: 13, 14), and inserted into the NdeI-XbaI restriction enzyme site of a pPROLar vector for pPROLar-ispSm1 and pPROLar-ispSm2 (SEQ ID NOS: 15, 16). Then these two vectors were transformed into an E. coli DH5α strain containing IspGESS of Example 1. 50 μg/Ml of ampicillin and 10 μg/Ml of kanamycin were added to LB liquid medium, and E. coli cells were cultured with shaking in the LB liquid medium at 37° C. for 16 hours. 4 Ml of the culture medium was placed in a 10 Ml vial and the cultured bacterial strain was then inoculated at a concentration of 1%. Then, the vial was sealed with a septum and the cells were cultured at 28° C. and 200 rpm for 24 hours. The intensity of fluorescence in the cultured cells was analyzed using a FACScalibur system (Becton Dickinson, USA). As detectors, FSC, SSC, and FL1-H (excitation=488 nm, emission=530/30 nm) detectors were set, and 10,000 samples were analyzed.
To verify the fluorescence differences of IspSm1, IspSm2 and no IspS induction control, the flow cytometry data was analyzed by t-test. The t-test compared the mean values of the fluorescence signals between the negative control (IspGESS without IspSm1 (IspSm2) induction) and the case that includes IspSm1 (IspSm2) inducer. […] Note that there are three replicates of each case (FIG. 8).

| Molecule | response of IspGESS fluorescence to the compound [1] | concentration from which fluorescence started to be sensed [1] | fluorescence intensity / isoprene synthesis activity compared with IspSm1 [2] | fluorescent mean intensity compared with IspGESS with IspSm1 [3] | intensity of fluorescence compared with cells containing neither IspSm1 nor IspSm2 [3] |
| --- | --- | --- | --- | --- | --- |
| c1ccccc1 [benzene] | responded | 1 µM |  |  |  |
| C=CC(=C)C [isoprene] | increased as the isoprene concentration increased | 50 µM |  |  |  |
| Oc1ccccc1 [phenol] | responded | 50 µM |  |  |  |
| Cc1ccccc1 [toluene] | responded | 0.5 µM |  |  |  |
| B1 |  |  | two times higher | higher | higher |

From US20140235502A1, “METHOD FOR SCREENING AND QUANTIFYING ISOPRENE BIOSYNTHESIS ENZYME ACTIVITY” (Institute of Bioscience and Biotechnology, priority 2013, published 2014)
